Our source for the melting point values is PMC9627624, “Molecular iodine-promoted oxidative cyclization for the synthesis of 1,3,4-thiadiazole-fused- [1,2,4]-thiadiazole incorporating 1,4-benzodioxine moiety as potent inhibitors of α-amylase and α-glucosidase: In vitro and in silico study” (Frontiers in Chemistry, 2022).

The term melting point denotes the temperature, or range, at which the solid turns liquid. Molecule `COC(=O)c1ccc(/N=c2\snc3sc(C4COc5ccccc5O4)nn23)cc1` (stereo not shown) [Compound 14] gave a melting point of 216 to 217 °C.

In the case of `Oc1cccc(/N=c2\snc3sc(C4COc5ccccc5O4)nn23)c1` (stereo not shown) [Compound 7], the melting point is 191 to 192 °C.

`O=[N+]([O-])c1ccc(/N=c2\snc3sc(C4COc5ccccc5O4)nn23)cc1` (stereo not shown) [Compound 1] showed a melting point of 210 to 211 °C.

`CN(C)c1ccc(/N=c2\snc3sc(C4COc5ccccc5O4)nn23)cc1` (stereo not shown) [Compound 9]: the melting point lay within 206 to 207 °C.

`Cc1cccc(/N=c2\snc3sc(C4COc5ccccc5O4)nn23)c1` (stereo not shown) [Compound 19]: the melting point lay in the range of 186 to 187 °C.

On to `COc1ccc(/N=c2\snc3sc(C4COc5ccccc5O4)nn23)cc1O` (stereo not shown) [Compound 20], for which the melting point fell in the range of 212 to 213 °C.

Turning to `Clc1ccc(/N=c2\snc3sc(C4COc5ccccc5O4)nn23)cc1` (stereo not shown) [Compound 13], the melting point was in the range of 204 to 205 °C.

The molecule `Oc1ccc(/N=c2\snc3sc(C4COc5ccccc5O4)nn23)cc1O` (stereo not shown) [Compound 5] registered a melting point of 201 to 202 °C.

For `Cc1ccc(/N=c2\snc3sc(C4COc5ccccc5O4)nn23)cc1` (stereo not shown) [Compound 16], the melting point was in the range of 187 to 188 °C.

The molecule `Clc1cccc(/N=c2\snc3sc(C4COc5ccccc5O4)nn23)c1` (stereo not shown) [Compound 17] gave a melting point of 203 to 204 °C.

Take `Oc1ccc(O)c(/N=c2\snc3sc(C4COc5ccccc5O4)nn23)c1` (stereo not shown) [Compound 6]: the melting point was in the range of 199 to 200 °C.

As to `Fc1ccccc1/N=c1\snc2sc(C3COc4ccccc4O3)nn12` (stereo not shown) [Compound 23], the melting point fell in the range of 193 to 194 °C.

In the case of `Fc1cccc(/N=c2\snc3sc(C4COc5ccccc5O4)nn23)c1` (stereo not shown) [Compound 24], the melting point lay in the range of 194 to 195 °C.

On to `Oc1ccc(/N=c2\snc3sc(C4COc5ccccc5O4)nn23)c(O)c1` (stereo not shown) [Compound 2], for which the melting point fell in the range of 201 to 202 °C.

In turn, `Oc1cc(O)c(/N=c2\snc3sc(C4COc5ccccc5O4)nn23)c(O)c1` (stereo not shown) [Compound 8] showed a melting point of 214 to 215 °C.

Regarding `Cc1ccccc1/N=c1\snc2sc(C3COc4ccccc4O3)nn12` (stereo not shown) [Compound 15], the melting point lay in the range of 188 to 189 °C.

With `Oc1cc(O)cc(/N=c2\snc3sc(C4COc5ccccc5O4)nn23)c1` (stereo not shown) [Compound 3], the melting point is 200 to 201 °C.

In turn, `Oc1cccc(/N=c2\snc3sc(C4COc5ccccc5O4)nn23)c1O` (stereo not shown) [Compound 22] yielded a melting point of 198 to 199 °C.

For the molecule `O=[N+]([O-])c1ccccc1/N=c1\snc2sc(C3COc4ccccc4O3)nn12` (stereo not shown) [Compound 10], the melting point fell in the range of 209 to 210 °C.
